Starred links: 1 amine or outer side, 2 acyl side, 3 side chain; linkers in the order of their positions; H or OH if unused. Positions of bridges follow the written chain, without caps; N, C: chain ends. Non-standard residues stand in square brackets, D forms with d. Residues, ends and D or L forms follow the SMILES beside them. Trimesoyl = O=C(c1cc(C(=O)[*:2])cc(C(=O)[*:3])c1)[*:1]; d2Nal = N[C@H](Cc1ccc2ccccc2c1)C(=O)O; Dap = NC[C@H](N)C(=O)O
How the values were obtained:
THP-1 cells = experiment: CellTiter-Glo luminescent cell viability assay; conditions: 2-day treatment
Etf-1 = Etf-1 (Ehrlichia chaffeensis, UniProt Q2GG12); experiment: immunofluorescence of native Etf-1 localization in E. chaffeensis-infected RF/6A cells; assay type: cell-based; conditions: 2 days
Etf-1, sequence (Q2GG12 entry or part of it): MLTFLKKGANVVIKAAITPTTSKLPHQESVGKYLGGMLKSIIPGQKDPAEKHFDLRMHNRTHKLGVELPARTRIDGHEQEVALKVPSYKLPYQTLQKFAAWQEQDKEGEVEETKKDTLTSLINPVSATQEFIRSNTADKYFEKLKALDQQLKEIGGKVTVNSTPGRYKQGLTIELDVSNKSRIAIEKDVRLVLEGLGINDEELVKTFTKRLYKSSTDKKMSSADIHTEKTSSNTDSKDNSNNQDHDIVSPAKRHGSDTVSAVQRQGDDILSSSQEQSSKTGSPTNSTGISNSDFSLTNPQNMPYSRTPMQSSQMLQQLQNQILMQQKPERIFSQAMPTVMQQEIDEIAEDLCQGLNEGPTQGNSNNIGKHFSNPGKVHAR
Experimental: Fig. 7. […] RF/6A cells were seeded onto a coverglass in a 12-well plate for 1 h, and infected with E. chaffeensis (Ech) at ∼30 MOI. […] Cells were fixed in 4% PFA and labeled with rabbit anti-Etf-1 IgG and AF488-conjugated goat anti-rabbit secondary antibody in PGS for 1 h each at RT. DAPI was used to label both host-cell nuclei and Ehrlichia DNAs (pseudocolored in green), and E. chaffeensis organisms were shown as green-colored, round to pleomorphic cocci (arrowhead in panel B) that further clustered as spherical morulae. Thin arrows, E. chaffeensis-containing inclusion; open arrows, filamentous-shaped mitochondria. DeltaVision microscope. […] (D) Percentage of E. chaffeensis inclusions colocalized with Etf-1 were quantified by counting ∼20 cells per group from three independent experiments.
For mitochondria localization analysis, RF/6A cells were seeded onto a cover glass in a 12-well plate for 3 h, then infected with E. chaffeensis at ∼30 MOI. […] Host-cell and Ehrlichial DNAs were stained with 300 nM DAPI, and fluorescence with differential interference contrast images were observed and captured with a DeltaVision deconvolution microscope (Applied Precision, Issaquah, WA, USA). Percentages of Etf-1 protein colocalization with macrocyclic peptides or E. chaffeensis inclusions were quantified by counting 10–20 cells per group from three independent experiments.

BECN1 binding to Etf-1 = experiment: streptavidin magnetic beads pull-down of BECN1 with biotin-Etf-1, Western blot; assay type: biochemical; conditions: 10 µM peptide
Etf-1-GFP = experiment: mitochondrial localization of ectopically expressed Etf-1-GFP in RF/6A cells; assay type: cell-based, Ehrlichia chaffeensis; conditions: 10 μM, 2 days
Experimental: For mitochondria localization analysis, RF/6A cells were seeded onto a cover glass in a 12-well plate for 3 h, then infected with E. chaffeensis at ∼30 MOI. Alternatively, cells were transfected with Etf-1-GFP or Etf-1-DsRed plasmids using Fugene HD (Promega) or by electroporation at 100 V and 1,000 µF using the Gene Pulser Xcell System (BioRad) according to the manufacturers’ instructions ([16]). […] To examine the roles of macrocyclic peptides on Etf-1 localization on E. chaffeensis inclusions, infected RF/6A cells were treated with 10 μM peptides at 3 h pi for 2 days. At 2 days pi or pt, cells were washed 3 times with PBS, then fixed in 4% PFA for 20 min. Native Etf-1 and mitochondria marker cytochrome C proteins were labeled with rabbit anti-Etf-1 IgG and mouse anti-cytochrome C, then with AF488-conjugated goat anti-rabbit and anti-mouse secondary antibodies in PGS (PBS with 0.1% gelatin and 0.1% saponin) for 1 h each at RT. Host-cell and Ehrlichial DNAs were stained with 300 nM DAPI, and fluorescence with differential interference contrast images were observed and captured with a DeltaVision deconvolution microscope (Applied Precision, Issaquah, WA, USA). Percentages of Etf-1 protein colocalization with macrocyclic peptides or E. chaffeensis inclusions were quantified by counting 10–20 cells per group from three independent experiments.

E. chaffeensis = E. chaffeensis infection of RF/6A cells (numbers and sizes of morulae); assay type: cell-based, Ehrlichia chaffeensis; conditions: 10 μM, 2 days
[1] = serum stability assay (UPLC); assay type: in vitro ADME; conditions: 25% (v/v) in DPBS; 25% human serum, 37°C, after 22 h; read-out: degradation
Experimental: In comparison, the linear peptide Tat (cell-permeable peptide of HIV) was completely degraded within the first 120 min of incubation (Fig. 4B).
Human serum was diluted to 25% (v/v) in sterile DPBS and equilibrated at 37°C for 15 min. Peptides were added to the diluted serum to a final concentration of 20 μM and incubated at 37°C with gentle mixing. At designated time points, 30 μL aliquots were withdrawn and mixed with 30 μL of 15% trichloroacetic acid in MeOH (w/v) and 30 μL of MeCN and stored at 4°C overnight to completely precipitate the serum proteins. Next, each aliquot was centrifuged (15,000g, 5 min, 4°C) and 14 μL of the supernatant was injected in an UPLC equipped with an analytical Waters Acquity UPLC BEH C18 column (1.7 μm, 2.1 mm I.D., 100 mm length) and an inline UV-Vis detector and a single quadrupole mass detector. The column was eluted with a linear gradient of 20–50% MeCN in ddH2O containing 0.1% TFA. A UV/Vis detector at 214 nm and the mass spec quantifying the ion counts corresponding to the [M + 3H]^3+ ion of the analytes were used to analyze the samples. The area under the peak of interest was obtained by integration, normalized to that of the peptide at t = 0, and plotted as a function of the incubation time to determine the serum half-life of the peptide.

CC(C)C[C@H]1NC(=O)[C@H](CO)NC(=O)[C@H]2CCCN2C(=O)[C@H](CCC(N)=O)NC(=O)[C@H](Cc2c[nH]cn2)NC(=O)[C@H](Cc2ccc(O)cc2)NC(=O)c2cc3cc(c2)C(=O)NC[C@H](NC1=O)C(=O)N[C@@H](Cc1ccccc1)C(=O)N[C@H](Cc1ccc2ccccc2c1)C(=O)N[C@H](CCCNC(=N)N)C(=O)N[C@@H](CCCNC(=N)N)C(=O)N[C@H](CCCNC(=N)N)C(=O)N[C@@H](CCCNC(=N)N)C(=O)N[C@H](C(N)=O)CNC3=O [Peptide B7, TMA-Tyr-His-Gln-pro-Ser-leu-Dap-Phe-nal-arg-Arg-arg-Arg-Dap] (YHQ[dP]S[dL][Dap]F[d2Nal][dR]R[dR]R[Dap]-NH2; linker N-7-14 via Trimesoyl)
cell viability (THP-1 cells; 20 μM): slightly reduced the cell viability | cytotoxicity (THP-1 cells; up to 10 μM): no cytotoxicity | localization of Etf-1 to E. chaffeensis inclusions (Etf-1; 10 μM from 3 h pi): significantly inhibited the localization | effect on mitochondrial localization of native Etf-1 (Etf-1; 10 μM): did not affect | disruption of BECN1 binding to Etf-1 (BECN1 binding to Etf-1; compared to DMSO control): disrupted BECN1 binding to Etf-1 | BECN1/Etf-1 Ratio (BECN1 binding to Etf-1; band intensities, DMSO control set as 1, Fig. 8B): 0.20 | effect on mitochondrial localization of Etf-1-GFP (Etf-1-GFP): neither peptide B7 nor C17 affected mitochondrial localization | inhibition of E. chaffeensis infection (E. chaffeensis): significantly inhibited | metabolised at 22 h, 20 µM [1]: < 20%

Reference: publication PMC9982066, “Inhibition of Ehrlichia chaffeensis infection by cell-permeable macrocyclic peptides that bind type IV secretion effector Etf-1” (PNAS Nexus, 2023)
